{"source": "patent EP4696306A1", "about": "“ADENOSINE TRIPHOSPHATE SECRETION INHIBITOR, HEPATIC STELLATE CELL ACTIVATION INHIBITOR, HEPATIC STELLATE CELL DEACTIVATOR, HEPATIC FIBROSIS THERAPEUTIC AGENT, NON-ALCOHOLIC STEATOHEPATITIS THERAPEUTIC AGENT, PSORIASIS THERAPEUTIC AGENT, AND USE OF COMPOUND FOR PRODUCING ADENOSINE TRIPHOSPHATE …” (KURUME UNIVERSITY, priority 2023, dated 2024)", "key": {"[1]": {"target": "T1, human VNUT (Homo sapiens, UniProt Q9BYT1)", "T1 construct": "made in house; host or cells: HIGH FIVE insect cells (baculovirus)", "T1 sequence (Q9BYT1 1-430 isoform Q9BYT1-2)": "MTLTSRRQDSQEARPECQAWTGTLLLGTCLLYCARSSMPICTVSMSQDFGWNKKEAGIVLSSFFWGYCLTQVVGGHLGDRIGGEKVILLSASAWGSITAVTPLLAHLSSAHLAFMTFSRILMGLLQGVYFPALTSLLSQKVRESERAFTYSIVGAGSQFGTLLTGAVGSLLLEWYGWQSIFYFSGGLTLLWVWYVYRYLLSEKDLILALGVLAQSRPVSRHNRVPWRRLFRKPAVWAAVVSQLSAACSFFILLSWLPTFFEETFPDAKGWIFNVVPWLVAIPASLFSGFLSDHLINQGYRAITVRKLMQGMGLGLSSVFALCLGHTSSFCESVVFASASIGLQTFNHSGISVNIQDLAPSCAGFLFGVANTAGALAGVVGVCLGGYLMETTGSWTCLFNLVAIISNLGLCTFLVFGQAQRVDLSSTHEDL", "experiment": "ATP loading into reconstituted liposomes containing human VNUT", "format": "biochemical", "settings": "0.1 mM PEP; 30°C, 2 minutes; N = 3", "protocol": "Human VNUT was prepared according to Reference C (Keisuke Sawada et al., 2008, Identification of a vesicular nucleotide transporter, Proc Natl Acad Sci USA, vol. 105, no. 15, 5683-5686). Insect cells (HIGH FIVE cells) were infected at MOI = 1 with a baculovirus in which a human VNUT expression system was incorporated. HIGH FIVE cells expressing VNUT (1 × 10^8 cells) were collected with a cell scraper, and suspended at about 8 mg/ml in 20 mM Tris-HCl (pH 8.0), 0.1 M potassium acetate, 10% glycerol, 10 µg/ml pepstatin A, and 10 µg/ml leupeptin, followed by homogenization of the cells using an ultrasonic generator (manufactured by Sonics Materials). […]\nVNUT (protein, 20 µg) prepared by the above method was mixed with liposomes (lipid weight, 200 µg), and left to stand at -80°C for 30 minutes. […] A major band was detected at a position of about 68 kDa. The proteins after the electrophoresis with the ePAGEL E-T520 2-10% gradient gel (manufactured by Atto) were electrotransferred to a nitrocellulose sheet, and analyzed by Western blotting using an anti-human SLC17A9 (VNUT) rabbit polyclonal antibody (manufactured by Proteintech).\nThe ATP transport activity of the VNUT-containing reconstituted liposomes prepared by the above method was measured. […]"}, "[2]": {"system": "MCD diet-induced NASH", "settings": "administration of clodronate; Non Patent Literature 4; cited from earlier work"}, "[3]": {"system": "ATP-loaded vesicles", "experiment": "MANT-ATP accumulation in ATP-loaded granules of keratinocytes (confocal microscopy)", "format": "cell-based, human", "settings": "10 µM imeglimin, 19 hours; 0.3 mM MANT-ATP", "protocol": "Keratinocytes were cultured in the same manner as in Example 8. Keratinocytes were cultured at 4 × 10^4 cells/ml in a glass-bottom dish (35 mm, manufactured by Matsunami Glass Ind., Ltd.) at 37°C in 5% CO2 for 2 days. The culture medium was then replaced with a medium supplemented with MANT-ATP (manufactured by Invitrogen) at a final concentration of 0.3 mM, and further incubation was performed for 4.5 hours. Subsequently, imeglimin was added thereto to a final concentration of 10 µM, and further incubation was performed at 37°C in 5% CO2 for 19 hours. Thereafter, the cells were washed twice with HBSS (manufactured by Gibco) and observed using an inverted confocal laser microscope (FV-1000 OSR, manufactured by Olympus Corporation)."}, "[4]": {"system": "imiquimod-induced psoriasis relapse", "experiment": "Imiquimod-induced psoriasis relapse model", "format": "in vivo, mice", "settings": "imeglimin 40 mg/kg orally, alternate days Day 8 to 22, then daily from Day 23; compared to IMQ", "protocol": "To the left auricle of each mouse, 62.5 mg of 5% imiquimod cream (Beselna Cream 5%) was applied once daily a total of seven times (Days 1 to 7) in accordance with Example 19 to induce imiquimod-induced psoriasis. Thereafter, the imiquimod treatment was interrupted, and imeglimin (40 mg/kg) was orally administered on alternate days for 2 weeks (Day 8 to 22) (IMG). Mice without administration of imeglimin were designated IMQ. On Day 23, the imiquimod treatment was resumed, and 62.5 mg of 5% imiquimod cream (Beselna Cream 5%) was applied once daily a total of […]. In parallel, imeglimin (40 mg/kg) was orally administered daily to IMG."}}}
{"smiles": "C=C(OP(=O)(O)O)C(=O)O", "note": "[PEP, phosphoenolpyruvic acid]", "values": [{"measurement": "ATP loading into liposomes", "setting": "[1]", "result": "strongly inhibited"}]}
{"smiles": "O=P(O)(O)C(Cl)(Cl)P(=O)(O)O", "note": "[clodronate]", "values": [{"measurement": "NASH activity score, inflammatory cell infiltration, and hepatic fibrosis", "setting": "[2]", "result": "improves the NASH activity score, inflammatory cell infiltration, and hepatic fibrosis"}]}
{"smiles": "C[C@H]1N=C(N(C)C)N=C(N)N1", "note": "[imeglimin]", "values": [{"measurement": "accumulation of MANT-ATP in granules", "setting": "[3]", "result": "this accumulation was absent"}, {"measurement": "psoriatic symptoms (auricular thickness) after resumed imiquimod treatment", "setting": "[4]", "result": "markedly reduced"}]}
